Reference: publication PMC5154332 (Neuropharmacology, 2017)
“And” between values parts separate entries of the source, which are not always exact repeats. Identical values can stand only once. Like-named read-outs stand apart in the source and are kept apart here.

Tests used:
[1] = biological target: hNav1.4 channels (Homo sapiens, UniProt P35499); assay: cell-based
[2] = test system: rat model of myotonia; assay: In vivo antimyotonic activity, time of righting reflex
[3] = biological target: hERG potassium channel (Homo sapiens, UniProt Q12809); assay: Patch-clamp of hERG potassium currents in transfected tsA201 cells; type: cell-based
[4] = biological target: hNav1.4 – WT (Homo sapiens, UniProt P35499); settings: cited from earlier work; for 0.1-to-10 Hz ratio: ratio of IC50 values
[5] = biological target: hNav1.4 - F1586C (Homo sapiens, UniProt P35499, F1586C); settings: ref Desaphy et al., 2012, cited from earlier work
[6] = test system: murine C2C12 skeletal muscle cells; assay: In vitro cytotoxicity, CCK-8 cell viability; type: cell-based; settings: C2C12, 6 h, from 100 μM to 1 mM
[7] = humans; ref Lalka et al., 1976; cited from earlier work
[8] = test system: HeLa; settings: 100 μM; ref Ghelardini et al., 2010; cited from earlier work
[9] = test system: MRC-5; settings: 100 μM; ref Ghelardini et al., 2010; cited from earlier work
[10] = current at end of first voltage step

Chain of hNav1.4 - F1586C (P35499 whole entry F1586C): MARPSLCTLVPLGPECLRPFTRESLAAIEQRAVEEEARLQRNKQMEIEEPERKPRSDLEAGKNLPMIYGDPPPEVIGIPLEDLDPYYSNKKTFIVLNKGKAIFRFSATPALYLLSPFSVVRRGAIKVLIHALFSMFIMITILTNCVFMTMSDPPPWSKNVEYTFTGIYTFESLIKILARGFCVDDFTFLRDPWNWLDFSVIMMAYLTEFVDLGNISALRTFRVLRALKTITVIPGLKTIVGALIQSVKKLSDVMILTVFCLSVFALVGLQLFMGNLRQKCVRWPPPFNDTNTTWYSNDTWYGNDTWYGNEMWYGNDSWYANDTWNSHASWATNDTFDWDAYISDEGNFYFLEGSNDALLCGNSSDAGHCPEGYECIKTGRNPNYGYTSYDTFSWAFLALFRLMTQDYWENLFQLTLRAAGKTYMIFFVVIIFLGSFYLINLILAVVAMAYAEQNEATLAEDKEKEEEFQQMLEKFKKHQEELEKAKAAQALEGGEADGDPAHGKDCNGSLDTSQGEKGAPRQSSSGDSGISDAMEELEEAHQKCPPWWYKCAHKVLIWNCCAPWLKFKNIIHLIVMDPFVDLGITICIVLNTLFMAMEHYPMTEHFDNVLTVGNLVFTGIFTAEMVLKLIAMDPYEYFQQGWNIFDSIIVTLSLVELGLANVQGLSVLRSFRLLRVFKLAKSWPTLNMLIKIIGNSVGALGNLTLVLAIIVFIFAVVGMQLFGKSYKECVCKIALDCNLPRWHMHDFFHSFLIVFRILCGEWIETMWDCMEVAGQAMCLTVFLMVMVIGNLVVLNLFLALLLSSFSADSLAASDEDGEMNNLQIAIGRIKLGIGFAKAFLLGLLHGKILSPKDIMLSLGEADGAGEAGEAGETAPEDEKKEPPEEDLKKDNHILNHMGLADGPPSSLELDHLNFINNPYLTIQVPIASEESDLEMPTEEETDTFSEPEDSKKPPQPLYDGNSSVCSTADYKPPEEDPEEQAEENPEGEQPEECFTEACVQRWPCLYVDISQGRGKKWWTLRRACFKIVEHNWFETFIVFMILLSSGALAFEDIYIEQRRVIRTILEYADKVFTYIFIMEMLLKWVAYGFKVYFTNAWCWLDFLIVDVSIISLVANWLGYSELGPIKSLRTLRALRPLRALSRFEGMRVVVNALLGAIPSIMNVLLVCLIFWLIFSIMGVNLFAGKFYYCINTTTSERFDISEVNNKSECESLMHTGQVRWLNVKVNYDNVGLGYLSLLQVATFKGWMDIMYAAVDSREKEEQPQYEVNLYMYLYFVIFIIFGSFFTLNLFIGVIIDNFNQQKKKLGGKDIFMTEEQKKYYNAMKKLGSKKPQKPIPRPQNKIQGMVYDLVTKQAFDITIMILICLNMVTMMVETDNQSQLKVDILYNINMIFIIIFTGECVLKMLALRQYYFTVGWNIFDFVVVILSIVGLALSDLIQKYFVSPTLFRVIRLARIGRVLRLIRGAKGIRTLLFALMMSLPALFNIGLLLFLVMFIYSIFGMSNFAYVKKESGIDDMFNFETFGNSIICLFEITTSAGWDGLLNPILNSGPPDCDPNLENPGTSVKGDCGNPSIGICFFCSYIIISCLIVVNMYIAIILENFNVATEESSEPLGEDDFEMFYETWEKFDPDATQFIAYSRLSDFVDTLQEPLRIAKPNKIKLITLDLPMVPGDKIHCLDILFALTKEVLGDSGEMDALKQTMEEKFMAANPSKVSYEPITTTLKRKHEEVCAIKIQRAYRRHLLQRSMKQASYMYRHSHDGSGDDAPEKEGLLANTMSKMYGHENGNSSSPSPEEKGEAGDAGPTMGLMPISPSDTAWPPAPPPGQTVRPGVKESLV
Chain of hERG potassium channel (Q12809 whole entry): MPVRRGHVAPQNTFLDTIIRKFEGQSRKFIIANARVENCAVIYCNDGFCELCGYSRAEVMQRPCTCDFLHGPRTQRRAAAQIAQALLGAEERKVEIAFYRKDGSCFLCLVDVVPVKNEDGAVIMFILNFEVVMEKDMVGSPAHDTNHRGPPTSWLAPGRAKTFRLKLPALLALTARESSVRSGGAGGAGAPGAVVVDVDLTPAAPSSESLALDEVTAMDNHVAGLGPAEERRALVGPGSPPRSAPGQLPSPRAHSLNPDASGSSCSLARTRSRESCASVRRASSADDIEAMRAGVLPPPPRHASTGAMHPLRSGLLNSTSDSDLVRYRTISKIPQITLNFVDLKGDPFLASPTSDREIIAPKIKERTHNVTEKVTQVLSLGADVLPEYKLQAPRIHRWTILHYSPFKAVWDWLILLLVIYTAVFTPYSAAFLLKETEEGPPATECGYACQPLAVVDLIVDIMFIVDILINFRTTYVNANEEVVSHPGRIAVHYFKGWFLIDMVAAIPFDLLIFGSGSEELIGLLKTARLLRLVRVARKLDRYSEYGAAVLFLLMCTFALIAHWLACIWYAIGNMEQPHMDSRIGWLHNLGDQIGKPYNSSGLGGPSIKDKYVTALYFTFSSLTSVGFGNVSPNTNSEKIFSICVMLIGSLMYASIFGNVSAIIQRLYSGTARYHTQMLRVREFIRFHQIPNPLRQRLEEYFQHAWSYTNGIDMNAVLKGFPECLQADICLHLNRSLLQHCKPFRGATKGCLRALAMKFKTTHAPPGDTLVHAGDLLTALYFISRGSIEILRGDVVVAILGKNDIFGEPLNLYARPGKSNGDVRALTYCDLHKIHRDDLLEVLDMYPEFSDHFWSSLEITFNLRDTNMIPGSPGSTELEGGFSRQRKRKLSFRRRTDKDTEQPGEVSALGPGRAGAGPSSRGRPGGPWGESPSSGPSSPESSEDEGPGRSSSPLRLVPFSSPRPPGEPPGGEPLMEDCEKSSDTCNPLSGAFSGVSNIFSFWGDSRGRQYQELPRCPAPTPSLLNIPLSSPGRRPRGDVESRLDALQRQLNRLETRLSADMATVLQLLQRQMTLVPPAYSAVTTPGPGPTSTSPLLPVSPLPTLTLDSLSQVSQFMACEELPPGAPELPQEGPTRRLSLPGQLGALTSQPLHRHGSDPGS
Chain of hNav1.4 channels (P35499 whole entry): as the sequence (P35499 whole entry F1586C) above, with C1586F counted along it
Chain of hNav1.4 – WT (P35499 whole entry): as the sequence (P35499 whole entry F1586C) above, with C1586F counted along it

## Cc1cccc(C)c1OCC(C)N (stereo not drawn) [Mexiletine, mexiletine]
[1]
  In vitro nH: 1.2 ± 0.2
[1]; In vitro IC50
  IC50: 17 µM and 16.9 µM
[2]; minimal TRR value of the dose-response fit
  In vivo Min: 18.0 ± 7.3%
[2]; oral, from dose-response fit
  maximal TRR reduction: ~80%
[3]; [10]
  concentration at which inhibition of hERG currents was complete: 1000 µM
  concentrations at which inhibition of hERG currents was observed: greater than 1 μM
[3]; hERG IC50, tail currents at −50 mV after test depolarization at −10 mV
  IC50: 43 µM
[3]; hERG IC50 versus hNav1.4 IC50 at 50 Hz
  ratio between hERG and hNav1.4 (myotonia-like condition) IC50: 2.5 fold
[3]; tail currents, Hill slope factor
  hERG nH: 0.79 ± 0.07
[4]; ref Desaphy et al., 2012
  Tonic block (0.1 Hz) nH: 0.9 ± 0.1
  Phasic block (10 Hz) nH: 0.8 ± 0.1
  0.1-to-10 Hz ratio: 10.3
[4]; read-out: Phasic block (10 Hz) IC50, 10 Hz, ref Desaphy et al., 2012
  IC50: 24 ± 2 µM
[5]; 0.1 Hz
  Tonic block (0.1 Hz) nH: 1.1 ± 0.1
[5]; 10 Hz
  Phasic block (10 Hz) nH: 1.0 ± 0.2
[5]; ratio of IC50 values
  0.1-to-10 Hz ratio: 1.2

## Cc1cccc(C)c1NC(=O)C(C)N (stereo not drawn) [Tocainide, tocainide]
[6]
  reduction of cell viability: about 20%
[4]; ref Ghelardini et al., 2010
  Tonic block (0.1 Hz) nH: 1.0 ± 0.1
  Phasic block (10 Hz) nH: 1.1 ± 0.2
  0.1-to-10 Hz ratio: 3.8
[7]
  oral bioavailability: ~100%
  plasma protein bound: ~50%
[8]
  HeLa cell viability: reduction
[9]
  MRC-5 cell viability: reduction
